In EP2914280B1, “SOMATOSTATIN-DOPAMINE CHIMERIC ANALOGS” (IPSEN PHARMA S.A.S., priority 2012, dated 2014):
Read-outs that look alike come from different tables or passages of the source. Numbered stars: 1 amine (or outer) side, 2 acyl side, 3 side chain; on linkers, the order of the positions; unused ones are H or OH. Bridge positions count the residues as written; N and C are the ends. Square brackets hold non-standard residues; d marks the D form. Peptide text beside a SMILES is read from it. * marks the point of attachment. X1 = CN1C[C@H](CSCCN(CCSC[C@@H]2C[C@@H]3c4cccc5[nH]cc(c45)C[C@H]3N(C)C2)[C@H](CCCCN[*:2])C(=O)[*:1])C[C@@H]2c3cccc4[nH]cc(c34)C[C@H]21; X2 = CN1C[C@H](CSCC(=O)*)C[C@@H]2c3cccc4[nH]cc(c34)C[C@H]21; dDab = NCC[C@@H](N)C(=O)O

Experiments:
[1] = molecular target: T1, hDRD2 (Homo sapiens, UniProt P14416); test: biochemical; type: binding; design: expressed in transfected cells; host or cells: CHO-K1, pcDNA3.1/GS, zeocin-selected clonal line; membranes
[2] = molecular target: T2, hSSTR2 (Homo sapiens, UniProt P30874); test: Somatostatin receptor radioligand binding assay (hSSTR2);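 further: radioligand displacement on membranes of CHO-K1 cells stably transfected with human SSTR2, specific binding taken as total minus binding left with 1000 nM SRIF-14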
T2 construct: host or cells: 'Cells expressing hSSTR2'
Procedure: The affinities of a test compound for the human somatostatin receptors were determined by radioligand binding assays in CHO-K1 cells stably transfected with each of the human somatostatin receptor subtypes, hSSTR1-5. […] Clonal cell lines stably expressing each of the somatostatin receptors were obtained by transfection into CHO-K1 cells (ATCC) and subsequently selected with culture media containing 0.8 mg/mL of G418 (Life Technologies).
Membranes for in vitro receptor binding assays were obtained by the following procedures. […] The supernatant containing the plasma membranes was centrifuged at 100,000 x g for 30 minutes and the pellet was resuspended in buffer containing 20 mM glycine-glycine, 1 mM MgCl2, 250 mM sucrose, pH 7.2, for storage at -80°C.
For the SSTR1, 2 and 5 assays, membranes and various concentrations of test compounds were incubated in 96-well plates for 60 minutes at 25°C with 0.05 nM [^125I-Tyr^11]-SRIF-14 (for hSSTR1; PerkinElmer Life Science), 0.05 nM [^125I-Tyr]-seglitide (for hSSTR2; PerkinElmer Life Science) or 0.05 nM [^125I-Tyr]-[DPhe-cyclo(Cys-Tyr-DTrp-Lys-Val-Cys)-Thr-NH2] (for hSSTR5; PerkinElmer Life Science) in 50 mM HEPES, 0.2% BSA, 0.1 mM MgCl2, pH 7.5.
The incubations were terminated by rapid filtration through GF/C glass microfiber filter plates (pre-wet with 0.3% polyethyleneimine and 0.1 % BSA) using a 96-well cell harvester (Brandel). Plates were washed six times with 1 mL/well aliquots of ice-cold buffer containing 50 mM Tris buffer, pH 7.7. Specific binding was defined as the total radioligand bound minus the bound in the presence of 1000 nM SRIF-14.

[3] = molecular target: T1, hDRD2; test: cell-based; design: host or cells: 'Cells expressing hDRD2'; conditions: for Emax: read-out: hDRD2 %Emax ± SEM
[4] = molecular target: T2, hSSTR2; test: Intracellular calcium mobilization assay (FLIPR Calcium 4), hSSTR2; type: cell-based;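 further: agonist activity measured in cells expressing hSSTR2, seeded in 384-well plates, loaded with Calcium 4 dye, read-out as rise in intracellular calcium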
[5] = CHO-K1 cell membranes, […] [3H]-spiperone, 60 minutes at 25°C, read-out: hDRD2 Ki (nM) ± SEM

T2 sequence (P30874 whole entry): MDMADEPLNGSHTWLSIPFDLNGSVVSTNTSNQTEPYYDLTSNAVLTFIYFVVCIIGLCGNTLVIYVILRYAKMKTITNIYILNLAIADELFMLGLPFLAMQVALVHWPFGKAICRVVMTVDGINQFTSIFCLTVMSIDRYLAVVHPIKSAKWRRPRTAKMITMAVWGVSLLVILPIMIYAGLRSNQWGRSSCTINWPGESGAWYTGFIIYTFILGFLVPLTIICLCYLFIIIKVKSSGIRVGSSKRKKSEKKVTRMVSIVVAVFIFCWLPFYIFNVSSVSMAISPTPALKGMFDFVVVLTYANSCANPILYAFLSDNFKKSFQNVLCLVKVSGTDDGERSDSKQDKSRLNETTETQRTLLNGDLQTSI
T1 sequence (P14416 whole entry): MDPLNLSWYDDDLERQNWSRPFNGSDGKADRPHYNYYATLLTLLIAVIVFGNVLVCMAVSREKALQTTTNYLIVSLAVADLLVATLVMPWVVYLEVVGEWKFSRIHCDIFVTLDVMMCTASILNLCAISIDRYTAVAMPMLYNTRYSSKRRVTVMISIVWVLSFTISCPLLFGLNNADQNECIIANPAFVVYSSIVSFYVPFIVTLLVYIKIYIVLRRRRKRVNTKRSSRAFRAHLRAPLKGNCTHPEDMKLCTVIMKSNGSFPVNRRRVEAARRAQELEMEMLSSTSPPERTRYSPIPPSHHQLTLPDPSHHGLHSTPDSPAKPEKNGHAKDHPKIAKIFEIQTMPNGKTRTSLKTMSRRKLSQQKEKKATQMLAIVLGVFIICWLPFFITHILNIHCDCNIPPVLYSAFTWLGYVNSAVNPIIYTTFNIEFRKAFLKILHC

CC(=O)N(CCCNC(CN[C@@H]1CCCCNC(=O)[C@H](Cc2ccc(F)cc2)NC(=O)[C@H]([C@@H](C)O)NC(=O)[C@H](CCCCN)NC(=O)[C@@H](Cc2c[nH]c3ccccc23)NC(=O)[C@H](Cc2ccccc2)NC(=O)[C@H](Cc2ccccc2)NC(=O)[C@H](CCCNC(=N)N)NC1=O)Cc1ccc(O)cc1)C[C@@H]1C[C@@H]2c3cccc4[nH]cc(c34)C[C@H]2N(C)C1 (single isomer, unassigned) [Compound 28A, 3-[N-acetyl-N-(D-6-methyl-8β-ergolinylmethyl)]-aminopropionyl-psi(CH2NH)-Tyr-psi(CH2NH)-cyclo(DLys-Arg-Phe-Phe-DTrp-Lys-Thr-4FPhe)]
Ki [1]: 14 ± 3.4 nM
Ki [2]: 0.04 ± 0.02 nM
Emax [3]: 79.7 ± 11.4%

C[C@@H](O)[C@@H]1NC(=O)[C@H](CCCCN)NC(=O)[C@@H](Cc2c[nH]c3ccccc23)NC(=O)[C@H](Cc2ccccc2)NC(=O)[C@H](Cc2ccccc2)NC(=O)[C@H](CCCNC(=N)N)NC(=O)[C@H](NCCCC[C@@H]2C[C@@H]3c4cccc5[nH]cc(c45)C[C@H]3N(C)C2)CCCCNC(=O)[C@H](Cc2ccc(F)cc2)NC1=O [Compound 2, (D-6-methyl-8β-ergolinyl)-butanoyl-psi(CH2NH)-cyclo(DLys-Arg-Phe-Phe-DTrp-Lys-Thr-4FPhe)]
Ki [1]: 6.9 ± 0.4 nM
EC50 [4]: 21.1 ± 6.7 nM
Ki [2]: 0.79 ± 0.06 nM
EC50 [3]: 55.7 ± 12.4 nM
Emax [3]: 84 ± 7.6%

C[C@@H](O)[C@@H]1NC(=O)[C@H](CCCCN)NC(=O)[C@@H](Cc2c[nH]c3ccccc23)NC(=O)[C@H](Cc2ccccc2)NC(=O)[C@H](Cc2ccccc2)NC(=O)[C@H](CCCNC(=N)N)NC(=O)[C@H](NCCCCC[C@@H]2C[C@@H]3c4cccc5[nH]cc(c45)C[C@H]3N(C)C2)CCCCNC(=O)[C@H](Cc2ccc(F)cc2)NC1=O [Compound 3, (D-6-methyl-8β-ergolinyl)-pentanoyl-psi(CH2NH)-cyclo(DLys-Arg-Phe-Phe-DTrp-Lys-Thr-4FPhe)]
Ki [1]: 45.2 ± 4.9 nM
EC50 [4]: 137 ± 63.8 nM
Ki [2]: 0.72 ± 0.17 nM
EC50 [3]: 212 ± 85.6 nM
Emax [3]: 84.1 ± 12.2%

C[C@@H](O)[C@@H]1NC(=O)[C@H](CCCCN)NC(=O)[C@@H](Cc2c[nH]c3ccccc23)NC(=O)[C@H](Cc2ccccc2)NC(=O)[C@H](Cc2ccccc2)NC(=O)[C@H](CCCNC(=N)N)NC(=O)[C@H](NCCSC[C@@H]2C[C@@H]3c4cccc5[nH]cc(c45)C[C@H]3N(C)C2)CCCCNC(=O)[C@H](Cc2ccc(F)c(F)c2)NC1=O [Compound 6A, Dop1-psi(CH2NH)-cyclo(DLys-Arg-Phe-Phe-DTrp-Lys-Thr-3,4FPhe)]
Ki [1]: 16.9 ± 0.2 nM
EC50 [4]: 15.7 ± 4.3 nM
Ki [2]: 0.35 nM
EC50 [3]: 62.1 ± 16.4 nM
Emax [3]: 91.5 ± 3%

C[C@@H](O)[C@@H]1NC(=O)[C@H](CCCCN)NC(=O)[C@@H](Cc2c[nH]c3ccccc23)NC(=O)[C@H](Cc2ccccc2)NC(=O)[C@H](Cc2ccccc2)NC(=O)[C@H](CCCNC(=N)N)NC(=O)[C@H](NCCSC[C@@H]2C[C@@H]3c4cccc5[nH]cc(c45)C[C@H]3N(C)C2)CCCCNC(=O)[C@H](Cc2cc(F)cc(F)c2)NC1=O [Compound 6B, Dop1-psi(CH2NH)-cyclo(DLys-Arg-Phe-Phe-DTrp-Lys-Thr-3,5FPhe)]
Ki [1]: 25.4 ± 7.9 nM
EC50 [4]: 17 ± 6.5 nM
Ki [2]: 0.25 ± 0.03 nM
EC50 [3]: 112 ± 27.8 nM
Emax [3]: 85.1 ± 9.6%

C[C@@H](O)[C@@H]1NC(=O)[C@H](CCCCN)NC(=O)[C@@H](Cc2c[nH]c3ccccc23)NC(=O)[C@H](Cc2ccccc2)NC(=O)[C@H](Cc2ccccc2)NC(=O)[C@H](CCCNC(=N)N)NC(=O)[C@H](NCCSC[C@@H]2C[C@@H]3c4cccc5[nH]cc(c45)C[C@H]3N(C)C2)CCCCNC(=O)[C@H](Cc2cccc(F)c2)NC1=O [Compound 6C, Dop1-psi(CH2NH)-cyclo(DLys-Arg-Phe-Phe-DTrp-Lys-Thr-3FPhe)]
Ki [1]: 30.3 ± 3.7 nM
EC50 [4]: 16.2 ± 5.9 nM
Ki [2]: 0.15 ± 0.04 nM
EC50 [3]: 60 ± 21.7 nM
Emax [3]: 94.4 ± 5.1%

C[C@@H](O)[C@@H]1NC(=O)[C@H](CCCCN)NC(=O)[C@@H](Cc2c[nH]c3ccccc23)NC(=O)[C@H](Cc2ccccc2)NC(=O)[C@H](Cc2ccccc2)NC(=O)[C@H](CCCNC(=N)N)NC(=O)[C@H](NCCSC[C@@H]2C[C@@H]3c4cccc5[nH]cc(c45)C[C@H]3N(C)C2)CCCCNC(=O)[C@H](Cc2ccccc2F)NC1=O [Compound 6D, Dop1-psi(CH2NH)-cyclo(DLys-Arg-Phe-Phe-DTrp-Lys-Thr-2FPhe)]
Ki [1]: 31.8 ± 11.8 nM
EC50 [4]: 25 ± 7.7 nM
Ki [2]: 0.54 ± 0.12 nM
EC50 [3]: 64.5 ± 20.5 nM
Emax [3]: 101 ± 2.7%

C[C@@H](O)[C@@H]1NC(=O)[C@H](CCCCN)NC(=O)[C@@H](Cc2c[nH]c3ccccc23)NC(=O)[C@H](Cc2ccccc2)NC(=O)[C@H](Cc2ccccc2)NC(=O)[C@H](CCCNC(=N)N)NC(=O)[C@H](NC[C@H](Cc2ccc(O)cc2)NC(=O)CSC[C@@H]2C[C@@H]3c4cccc5[nH]cc(c45)C[C@H]3N(C)C2)CCCNC(=O)[C@H](Cc2ccccc2)NC1=O [Compound 30, Dop1-Tyr-psi(CH2NH)-cyclo(DOrn-Arg-Phe-Phe-DTrp-Lys-Thr-Phe)]
EC50 [4]: 13.1 ± 4.2 nM
Ki [2]: 0.4 ± 0.06 nM

C[C@@H](O)[C@@H]1NC(=O)[C@H](CCCCN)NC(=O)[C@@H](Cc2c[nH]c3ccccc23)NC(=O)[C@H](Cc2cccnc2)NC(=O)[C@H](Cc2ccccc2)NC(=O)[C@H](CCCNC(=N)N)NC(=O)[C@H](NC[C@H](Cc2ccc(O)cc2)NC(=O)CSC[C@@H]2C[C@@H]3c4cccc5[nH]cc(c45)C[C@H]3N(C)C2)CCCCNC(=O)[C@H](Cc2ccccc2)NC1=O [Compound 38, Dop1-Tyr-psi(CH2NH)-cyclo(DLys-Arg-Phe-3Pal-DTrp-Lys-Thr-Phe)]
Ki [1, 5]: 179 ± 113 nM
Emax [3]: 97.5 ± 0.3%

C[C@@H](O)[C@@H]1NC(=O)[C@H](CCCCN)NC(=O)[C@@H](Cc2c[nH]c3ccccc23)NC(=O)[C@H](Cc2ccccc2)NC(=O)[C@H](Cc2ccccc2)NC(=O)[C@H](CCCNC(=N)N)NC(=O)[C@H](N(CCSC[C@@H]2C[C@@H]3c4cccc5[nH]cc(c45)C[C@H]3N(C)C2)CCSC[C@@H]2C[C@@H]3c4cccc5[nH]cc(c45)C[C@H]3N(C)C2)CCCCNC(=O)[C@H](Cc2ccccc2)NC1=O [Compound 40, bis[Dop1-psi(CH2N)]-cyclo(DLys-Arg-Phe-Phe-DTrp-Lys-Thr-Phe)] (RFF[dW]KTF; linker N-C via X1)
EC50 [4]: 27 ± 6.5 nM
Ki [2]: 3.17 ± 1.41 nM
EC50 [3]: 123 ± 6.5 nM
Emax [3]: 91.5%

C[C@@H](O)[C@@H]1NC(=O)[C@H](CCCCN)NC(=O)[C@@H](Cc2c[nH]c3ccccc23)NC(=O)[C@H](Cc2ccccc2)NC(=O)[C@H](Cc2ccccc2)NC(=O)[C@H](CCCNC(=N)N)NC(=O)[C@H](NC[C@@H](Cc2ccc(O)cc2)NC(=O)CSC[C@@H]2C[C@@H]3c4cccc5[nH]cc(c45)C[C@H]3N(C)C2)CCCCNC(=O)[C@H](Cc2ccccc2)NC1=O [Compound 41, Dop1-DTyr-psi(CH2NH)-cyclo(DLys-Arg-Phe-Phe-DTrp-Lys-Thr-Phe)]
Ki [1, 5]: 8.5 ± 3.6 nM
Ki ([2]; CHO-K1 cell membranes, 0.05 nM [125I-Tyr]-seglitide, 60 minutes at 25°C, read-out: hSSTR2 Ki (nM) ± SEM): 0.37 nM
Emax [3]: 91.2%

C[C@@H](O)[C@@H]1NC(=O)[C@H](CCCCN)NC(=O)[C@@H](Cc2c[nH]c3ccccc23)NC(=O)[C@H](Cc2ccccc2)NC(=O)[C@H](Cc2ccccc2)NC(=O)[C@H](CCCNC(=N)N)NC(=O)[C@H](NC(=O)[C@H](CCCCNC(=O)CSC[C@@H]2C[C@@H]3c4cccc5[nH]cc(c45)C[C@H]3N(C)C2)NC(=O)CSC[C@@H]2C[C@@H]3c4cccc5[nH]cc(c45)C[C@H]3N(C)C2)CCNC(=O)[C@H](Cc2ccccc2)NC1=O [Reference Compound C, Dopl-Lys(Dopl)-cyclo(DDab-Arg-Phe-Phe-DTrp-Lys-Thr-Phe), reference compound] (X2-K(X2)[dDab]RFF[dW]KTF; lactam 2-C (inferred))
Emax ([4]; read-out: hSSTR2 %Emax ± SEM): 60.6 ± 3.2%
Emax [3]: 101 ± 0.8%
